Calls of active or inactive are those of the source. The rule behind the calls is not given here.
Columns and labels:
[1] = biological target: T1, 5-hydroxytryptamine receptor 2A (Homo sapiens, UniProt P28223); assay: biochemical; format: cell-based, CHO-K1
[2] = biological target: T2, 5-hydroxytryptamine receptor 1A (Homo sapiens, UniProt P08908); assay: Partial agonist activity at human 5-HT1AR expressed in CHO-K1 cells assessed as increase in cAMP accumulation by chemiluminescence-based assay; format: functional, cell-based
T2 sequence (P08908 whole entry): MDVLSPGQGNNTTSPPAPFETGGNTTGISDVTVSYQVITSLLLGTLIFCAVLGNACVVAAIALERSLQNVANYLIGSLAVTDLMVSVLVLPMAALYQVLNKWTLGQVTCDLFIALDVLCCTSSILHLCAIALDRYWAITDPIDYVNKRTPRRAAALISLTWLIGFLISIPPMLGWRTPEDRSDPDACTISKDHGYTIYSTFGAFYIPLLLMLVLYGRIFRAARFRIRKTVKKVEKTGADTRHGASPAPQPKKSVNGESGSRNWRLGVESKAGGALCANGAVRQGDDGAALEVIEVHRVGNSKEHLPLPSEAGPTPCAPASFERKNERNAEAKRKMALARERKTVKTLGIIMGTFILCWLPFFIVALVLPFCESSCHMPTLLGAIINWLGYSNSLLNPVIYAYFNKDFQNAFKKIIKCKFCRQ

[3] = biological target: T3, 5-hydroxytryptamine receptor 1A (Homo sapiens) (UniProt P08908); assay: Partial agonist activity at human 5-HT1AR expressed in CHO-K1 cells assessed as increase in cAMP accumulation at 10^-6 M by chemiluminescence-based assay relative to serotonin; format: functional, cell-based
T3 sequence (whole entry): T2 sequence (P08908 whole entry)

[4] = biological target: T1, 5-hydroxytryptamine receptor 2A; assay: Antagonist activity at human 5-HT2AR expressed in HEK293 cells assessed as inhibition of serotonin-induced calcium flux at 10^-6 M after 30 mins by HTRF method; format: functional, cell-based
[5] = biological target: T1, 5-hydroxytryptamine receptor 2A; assay: Antagonist activity at human 5-HT2AR expressed in HEK293 cells assessed as inhibition of serotonin-induced calcium flux after 30 mins by HTRF method; format: functional, cell-based
[6] = biological target: T4, 5-hydroxytryptamine receptor 6 (Homo sapiens, UniProt P50406); assay: Antagonist activity at human 5-HT6R expressed in CHO-K1 cells assessed as inhibition of serotonin-induced cAMP accumulation at 10^-6 M after 30 mins by chemiluminescence-based assay; format: functional, cell-based
[7] = biological target: T5, 5-hydroxytryptamine receptor 7 (Homo sapiens, UniProt P34969); assay: Antagonist activity at human 5-HT7R expressed in CHO-K1 cells assessed as inhibition of serotonin-induced cAMP accumulation after 30 mins by chemiluminescence-based assay; format: functional, cell-based
[8] = biological target: T5, 5-hydroxytryptamine receptor 7; assay: Antagonist activity at human 5-HT7R expressed in CHO-K1 cells assessed as inhibition of serotonin-induced cAMP accumulation at 10^-6 M after 30 mins by chemiluminescence-based assay; format: functional, cell-based
[9] = biological target: D(2) dopamine receptor (Homo sapiens) (UniProt P14416); assay: Antagonist activity at human D2LR expressed in CHO-K1 cells assessed as inhibition of dopamine-induced calcium flux by fluorimetric method; format: functional, cell-based
[10] = biological target: D(2) dopamine receptor (Homo sapiens) (UniProt P14416); assay: Antagonist activity at human D2LR expressed in CHO-K1 cells assessed as inhibition of dopamine-induced calcium flux at 10^-6 M by fluorimetric method; format: functional, cell-based
[11] = biological target: D(3) dopamine receptor (Homo sapiens) (UniProt P35462); assay: Antagonist activity at human D3R expressed in CHO-K1 cells assessed as inhibition of dopamine induced cAMP accumulation at 10^-6 M after 30 mins by HTRF method; format: functional, cell-based
[12] = Drug level in Wistar rat plasma at 3 mg/kg, ip measured after 15 mins by LC-MS/MS analysis; format: ADME, organism-based
[13] = Drug level in Wistar rat plasma at 3 mg/kg, ip measured after 30 mins by LC-MS/MS analysis; format: ADME, organism-based
[14] = Drug level in Wistar rat plasma at 3 mg/kg, ip measured after 60 mins by LC-MS/MS analysis; format: ADME, organism-based
[15] = Drug level in Wistar rat brain at 3 mg/kg, ip measured after 15 mins by LC-MS/MS analysis; format: ADME, organism-based; conditions: read-out: Drug uptake
[16] = Drug level in Wistar rat brain at 3 mg/kg, ip measured after 30 mins by LC-MS/MS analysis; format: ADME, organism-based; conditions: read-out: Drug uptake
[17] = Drug level in Wistar rat brain at 3 mg/kg, ip measured after 60 mins by LC-MS/MS analysis; format: ADME, organism-based; conditions: read-out: Drug uptake
[18] = Ratio of drug level in brain to plasma in Wistar rat at 3 mg/kg, ip measured after 15 mins by LC-MS/MS analysis; format: ADME, organism-based; conditions: read-out: BPR
[19] = Ratio of drug level in brain to plasma in Wistar rat at 3 mg/kg, ip measured after 30 mins by LC-MS/MS analysis; format: ADME, organism-based; conditions: read-out: BPR
[20] = Ratio of drug level in brain to plasma in Wistar rat at 3 mg/kg, ip measured after 60 mins by LC-MS/MS analysis; format: ADME, organism-based; conditions: read-out: BPR
[21] = Toxicity in ip dosed Sprague-Dawley rat assessed as sedation pretreated for 60 mins followed by PCP addition measured for 30 mins starting 15 min after rat reintroduction to auto-tracks; format: organism-based; conditions: in vivo
[22] = tested on: Rattus norvegicus; assay: Antipsychotic activity in Sprague-Dawley rat assessed as reduction in PCP-induced hyper-locomotion at 1 to 3 mg/kg, ip pretreated for 60 mins followed by PCP addition measured for 30 mins starting 15 min after rat reintroduction to auto-tracks; format: functional, organism-based
[23] = biological target: T2, 5-hydroxytryptamine receptor 1A; assay: biochemical
Description: Displacement of [3H]-8-OH-DPAT from human 5-HT1AR expressed in HEK293 cell membranes after 1 hr by microbeta counting method

[24] = biological target: T5, 5-hydroxytryptamine receptor 7; assay: biochemical
Description: Displacement of [3H]-5-CT from human 5-HT7R expressed in HEK293 cell membranes after 1 hr at 37 degC by microbeta counting method

[25] = biological target: T6, Alpha-1A adrenergic receptor (Homo sapiens) (UniProt P35348); assay: Antagonist activity at human adrenergic alpha1A receptor expressed in CHO cells assessed as inhibition of epinephrine-induced calcium flux by fluorimetric method; format: functional, cell-based
T6 sequence (whole entry): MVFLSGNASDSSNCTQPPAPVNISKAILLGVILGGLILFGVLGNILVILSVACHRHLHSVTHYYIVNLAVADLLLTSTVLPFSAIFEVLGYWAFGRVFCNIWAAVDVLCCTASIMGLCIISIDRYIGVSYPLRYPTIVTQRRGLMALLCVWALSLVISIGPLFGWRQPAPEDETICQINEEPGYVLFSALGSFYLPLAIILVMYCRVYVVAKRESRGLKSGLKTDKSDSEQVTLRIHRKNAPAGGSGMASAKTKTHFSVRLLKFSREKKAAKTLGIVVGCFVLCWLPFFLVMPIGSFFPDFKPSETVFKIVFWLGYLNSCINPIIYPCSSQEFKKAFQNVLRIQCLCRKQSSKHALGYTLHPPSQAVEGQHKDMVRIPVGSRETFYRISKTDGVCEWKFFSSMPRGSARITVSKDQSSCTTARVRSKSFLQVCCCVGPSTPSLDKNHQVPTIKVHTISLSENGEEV

[26] = biological target: T3, 5-hydroxytryptamine receptor 1A (Homo sapiens); conditions: CHO-K1, 10^-7 M
[27] = tested on: Rattus norvegicus; assay: Toxicity in Wistar rat assessed as increase in prolactin level at 3 mg/kg, po after 60 mins by ELISA; format: organism-based; conditions: in vivo, 1 h
[28] = Toxicity in ip dosed Sprague-Dawley rat assessed as induction of catalepsy measured every 30 mins up to 240 mins by bar test; format: organism-based; conditions: Sprague-Dawley, in vivo
[29] = tested on: Rattus norvegicus; assay: Effect on failure incidence during conditioned avoidance response test in Sprague-Dawley rat at 2 mg/kg, ip administered 60 mins prior to testing; format: ADME, organism-based; conditions: in vivo, 1 h
[30] = organism: Rattus norvegicus; assay: animal or person; conditions: Sprague-Dawley, ip, read-out: MED
Description: Antipsychotic activity in ip dosed Sprague-Dawley rat assessed as reduction in PCP-induced hyper-locomotion pretreated for 60 mins followed by PCP addition measured for 30 mins starting 15 min after rat reintroduction to auto-tracks

[31] = organism: Rattus norvegicus; assay: animal or person; conditions: Sprague-Dawley, ip, read-out: MED; remark: listed apart in the source
Description: Reversal of PCP-induced cognitive impairment in ip dosed Sprague-Dawley rat assessed as reduction in time spent exploring novel object over familiar object pretreated for 60 mins followed by PCP addition by novel object recognition assay

[32] = organism: Rattus norvegicus; assay: animal or person; conditions: Sprague-Dawley, ip, read-out: MED; remark: listed apart in the source
Description: Antipsychotic activity in ip dosed Sprague-Dawley rat assessed as suppression of avoidance behavior by avoiding foot shock administered 60 mins prior to test by conditioned avoidance response test

[33] = biological target: T4, 5-hydroxytryptamine receptor 6; assay: biochemical
Description: Displacement of [3H]-LSD from human 5-HT6R expressed in HEK293 cell membranes after 1 hr at 37 degC by microbeta counting method

[34] = biological target: 5-hydroxytryptamine receptor 1B (Cricetulus griseus) (UniProt P46636); assay: Antagonist activity at 5-HT1BR in CHO cells assessed as inhibition of serotonin-induced response; format: functional, cell-based
Chain of 5-hydroxytryptamine receptor 1B (Cricetulus griseus) (P46636 whole entry): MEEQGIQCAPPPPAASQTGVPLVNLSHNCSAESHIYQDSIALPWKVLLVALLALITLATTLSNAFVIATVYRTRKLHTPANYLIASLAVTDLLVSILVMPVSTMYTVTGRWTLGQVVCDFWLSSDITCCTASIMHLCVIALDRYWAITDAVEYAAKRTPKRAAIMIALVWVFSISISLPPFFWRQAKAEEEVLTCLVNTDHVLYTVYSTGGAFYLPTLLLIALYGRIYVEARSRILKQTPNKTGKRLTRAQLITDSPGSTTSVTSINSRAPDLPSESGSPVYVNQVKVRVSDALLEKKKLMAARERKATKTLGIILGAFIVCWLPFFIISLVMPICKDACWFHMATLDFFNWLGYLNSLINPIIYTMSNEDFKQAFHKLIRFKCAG

T1 sequence (P28223 whole entry): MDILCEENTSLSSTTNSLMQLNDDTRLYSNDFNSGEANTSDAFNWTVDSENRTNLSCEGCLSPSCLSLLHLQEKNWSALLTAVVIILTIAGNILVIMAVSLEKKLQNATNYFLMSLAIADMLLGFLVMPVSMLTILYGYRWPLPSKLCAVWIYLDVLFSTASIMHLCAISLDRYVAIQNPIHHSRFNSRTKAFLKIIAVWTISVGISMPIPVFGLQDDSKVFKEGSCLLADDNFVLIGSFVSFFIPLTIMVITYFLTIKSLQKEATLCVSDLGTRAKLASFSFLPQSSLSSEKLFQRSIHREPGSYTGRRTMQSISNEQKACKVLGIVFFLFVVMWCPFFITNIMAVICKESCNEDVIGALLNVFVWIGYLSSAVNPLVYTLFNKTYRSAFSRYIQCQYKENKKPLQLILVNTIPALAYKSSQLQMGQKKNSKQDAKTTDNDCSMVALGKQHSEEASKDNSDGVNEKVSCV
T5 sequence (P34969 whole entry): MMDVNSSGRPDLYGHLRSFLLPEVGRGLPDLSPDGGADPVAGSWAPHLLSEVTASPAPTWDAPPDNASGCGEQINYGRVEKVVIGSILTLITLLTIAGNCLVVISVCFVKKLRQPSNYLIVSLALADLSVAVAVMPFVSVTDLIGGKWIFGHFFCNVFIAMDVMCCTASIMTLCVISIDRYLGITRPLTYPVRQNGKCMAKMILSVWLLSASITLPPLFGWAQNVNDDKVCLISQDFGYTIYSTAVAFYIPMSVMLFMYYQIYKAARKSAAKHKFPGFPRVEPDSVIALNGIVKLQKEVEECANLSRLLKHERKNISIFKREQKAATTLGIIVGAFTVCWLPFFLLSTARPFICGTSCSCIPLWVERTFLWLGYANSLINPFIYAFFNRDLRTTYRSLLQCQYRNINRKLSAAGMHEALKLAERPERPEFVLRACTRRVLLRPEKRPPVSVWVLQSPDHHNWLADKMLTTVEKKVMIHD
Chain of D(2) dopamine receptor (Homo sapiens) (P14416 whole entry): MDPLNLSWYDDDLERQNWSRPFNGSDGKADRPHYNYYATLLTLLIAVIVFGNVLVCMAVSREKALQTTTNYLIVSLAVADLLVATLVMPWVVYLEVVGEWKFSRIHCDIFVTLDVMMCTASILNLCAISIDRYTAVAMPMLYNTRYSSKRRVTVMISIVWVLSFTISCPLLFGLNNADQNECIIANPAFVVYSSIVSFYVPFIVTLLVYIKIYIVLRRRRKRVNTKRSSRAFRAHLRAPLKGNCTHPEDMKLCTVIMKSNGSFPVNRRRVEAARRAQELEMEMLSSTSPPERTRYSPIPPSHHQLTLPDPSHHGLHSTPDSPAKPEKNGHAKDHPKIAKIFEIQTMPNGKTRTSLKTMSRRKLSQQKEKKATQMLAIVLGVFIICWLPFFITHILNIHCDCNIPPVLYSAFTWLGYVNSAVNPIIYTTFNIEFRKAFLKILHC
T4 sequence (P50406 whole entry): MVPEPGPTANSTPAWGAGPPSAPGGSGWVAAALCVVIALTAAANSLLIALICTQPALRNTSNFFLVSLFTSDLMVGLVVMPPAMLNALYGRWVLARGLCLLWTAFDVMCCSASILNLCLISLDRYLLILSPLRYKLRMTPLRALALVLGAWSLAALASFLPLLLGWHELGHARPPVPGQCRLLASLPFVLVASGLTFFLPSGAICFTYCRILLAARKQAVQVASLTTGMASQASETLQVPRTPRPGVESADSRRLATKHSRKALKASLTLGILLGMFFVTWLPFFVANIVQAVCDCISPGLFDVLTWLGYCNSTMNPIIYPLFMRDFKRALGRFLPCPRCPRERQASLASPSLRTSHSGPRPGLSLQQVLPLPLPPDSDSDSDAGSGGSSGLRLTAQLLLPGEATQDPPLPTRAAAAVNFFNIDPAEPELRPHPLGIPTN
Chain of D(3) dopamine receptor (Homo sapiens) (P35462 whole entry): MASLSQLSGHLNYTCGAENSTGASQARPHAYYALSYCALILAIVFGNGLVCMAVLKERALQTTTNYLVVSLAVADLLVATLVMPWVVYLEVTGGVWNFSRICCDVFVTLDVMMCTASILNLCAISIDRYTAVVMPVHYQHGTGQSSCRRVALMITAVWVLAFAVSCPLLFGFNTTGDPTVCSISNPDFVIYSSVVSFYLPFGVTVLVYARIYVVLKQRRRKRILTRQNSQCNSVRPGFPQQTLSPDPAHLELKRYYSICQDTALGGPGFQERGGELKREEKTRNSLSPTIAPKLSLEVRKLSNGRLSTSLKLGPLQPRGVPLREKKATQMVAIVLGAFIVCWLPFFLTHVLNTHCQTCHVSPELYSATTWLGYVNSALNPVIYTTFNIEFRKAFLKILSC

Structure (SMILES) | Ki [1] | concentration at 0.25 h [12] | concentration at 0.5 h [13] | concentration at 1 h [14] | concentration at 0.25 h [15] | concentration at 0.5 h [16] | concentration at 1 h [17] | Kp at 0.25 h [18] | Kp at 0.5 h [19] | Kp at 1 h [20] | MTD at 0.5 h [21] | Activity [22] | Ki [23] | Ki [24] | further results
O=S(=O)(c1cncc2ccccc12)N1CCC[C@@H]1CCN1CCN(c2cccc3sccc23)CC1 | 26 nM | 564 nM | 518 nM | 96.7 nM | 266 nM | 242 nM | 114 nM | 0.47 | 0.48 | 1.24 | 3 mg/kg | inactive | 24 nM | 4 nM | EC50 [2]: 11 nM; Activity [3]: 36%; inhibition [4]: 100%; Kb [5]: 9.5 nM; inhibition [6]: 73%; Kb [7]: 0.47 nM; inhibition [8]: 100%; Kb [9]: 0.74 nM; inhibition [10]: 100%; inhibition [11]: 78%
COc1cccc(OC)c1OCCNCC1COc2ccccc2O1 (centres undefined) | – | – | – | – | – | – | – | – | – | – | – | – | – | – | Kb [25]: 0.24 nM
O=C(CCCN1CCC2(CC1)C(=O)NCN2c1ccccc1)c1ccc(F)cc1 | – | – | – | – | – | – | – | – | – | – | – | – | – | – | inhibition [26]: 100%
Cc1cc2c(s1)Nc1ccccc1N=C2N1CCN(C)CC1 [OLANZAPINE] | – | – | – | – | – | – | – | – | – | – | 1.25 mg/kg | – | – | – | Activity [27]: Toxic; MTD [28]: 40 mg/kg; Activity [29]: Non-Toxic; minimal effective dose [30]: 1.88 mg/kg; minimal effective dose [31]: 1.25 mg/kg; minimal effective dose [32]: 1 mg/kg
O=S(=O)(c1cncc2ccccc12)N1CCC[C@@H]1CCN1CCN(c2nsc3ccccc23)CC1 | 10 nM | 472 nM | 376 nM | 125 nM | 218 nM | 242 nM | 123 nM | 0.48 | 0.65 | 1 | 2 mg/kg | inactive | 14 nM | 3 nM | Ki [33]: 40 nM
COc1ccc(NC(=O)c2ccc(-c3ccc(-c4noc(C)n4)cc3C)cc2)cc1N1CCN(C)CC1 | – | – | – | – | – | – | – | – | – | – | – | – | – | – | Kb [34]: 0.065 nM

Source: ChEMBL document CHEMBL4229332, “Novel multi-target azinesulfonamides of cyclic amine derivatives as potential antipsychotics with pro-social and pro-cognitive effects” (Eur J Med Chem, 2018)
